Results taken from PubChem BioAssay AID248 (DTP/NCI, 2004).
Several values for one entry are separate records, joined by “and”; a condition that tells them apart may be missing. Equal values may be shown once. Inconclusive results and toxic doses are left out.

System: L1210 leukemia ip in BDF1 mice, survival T/C
Test: NCI In Vivo Anticancer Drug Screen. Data for tumor model L1210 Leukemia (intraperitoneal) in B6D2F1 (BDF1) mice
Conditions: higher = longer survival
Method in brief: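 Tumor cells were implanted, animals were treated, and survival was followed. The result divides the treated measurement by the vehicle-control measurement.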

O=c1[nH]c(=O)n([C@H]2CCCO2)cc1F
T/C (endpoint: mean survival time, dose: 2.5 mg/kg/injection, schedule: Q01DX009 (ip), vehicle: saline): 97 % of control
T/C (endpoint: mean survival time, dose: 5.0 mg/kg/injection, schedule: Q01DX009 (ip), vehicle: saline): 98 % of control
T/C (endpoint: mean survival time, dose: 5.0 mg/kg/injection, schedule: Q01DX009 (oral), vehicle: saline): 102 % of control
T/C (endpoint: mean survival time, dose: 10.0 mg/kg/injection, schedule: Q01DX009 (ip), vehicle: saline): 100 % of control
T/C (endpoint: mean survival time, dose: 10.0 mg/kg/injection, schedule: Q01DX009 (oral), vehicle: saline): 103 % of control
T/C (endpoint: mean survival time, dose: 20.0 mg/kg/injection, schedule: Q01DX009 (ip), vehicle: saline): 103 % of control
T/C (endpoint: mean survival time, dose: 20.0 mg/kg/injection, schedule: Q01DX009 (oral), vehicle: saline): 112 % of control
T/C (endpoint: mean survival time, dose: 38.9 mg/kg/injection, schedule: Q01DX009 (ip), vehicle: saline): 97 % of control
T/C (endpoint: mean survival time, dose: 39.0 mg/kg/injection, schedule: Q01DX009 (ip), vehicle: Klucel (hydroxypropylcellulose) (HPC)): 111 % of control
T/C (endpoint: mean survival time, dose: 40.0 mg/kg/injection, schedule: Q01DX009 (ip), vehicle: saline): 101 % of control
T/C (endpoint: mean survival time, dose: 40.0 mg/kg/injection, schedule: Q01DX009 (oral), vehicle: saline): 107 % of control
T/C (endpoint: mean survival time, dose: 64.8 mg/kg/injection, schedule: Q01DX009 (ip), vehicle: saline): 107 % of control
T/C (endpoint: mean survival time, dose: 65.0 mg/kg/injection, schedule: Q01DX009 (ip), vehicle: Klucel (hydroxypropylcellulose) (HPC)): 123 % of control
T/C (endpoint: mean survival time, dose: 75.0 mg/kg/injection, schedule: Q04DX003 (ip), vehicle: other): 95 % of control
T/C (endpoint: mean survival time, dose: 80.0 mg/kg/injection, schedule: Q01DX009 (ip), vehicle: saline): 114 % of control
T/C (endpoint: mean survival time, dose: 80.0 mg/kg/injection, schedule: Q01DX009 (oral), vehicle: saline): 118 % of control
T/C (endpoint: mean survival time, dose: 105.0 mg/kg/injection, schedule: Q01DX012 (sc), vehicle: clinical formulation): 159 % of control
T/C (endpoint: mean survival time, dose: 108.0 mg/kg/injection, schedule: Q01DX009 (ip), vehicle: Klucel (hydroxypropylcellulose) (HPC)): 159 % of control
T/C (endpoint: mean survival time, dose: 108.0 mg/kg/injection, schedule: Q04DX003 (ip), vehicle: Klucel (hydroxypropylcellulose) (HPC)): 113 % of control
T/C (endpoint: mean survival time, dose: 150.0 mg/kg/injection, schedule: Q04DX003 (ip), vehicle: other): 111 % of control
T/C (endpoint: mean survival time, dose: 160.0 mg/kg/injection, schedule: Q01DX009 (ip), vehicle: saline): 150 % of control
T/C (endpoint: mean survival time, dose: 160.0 mg/kg/injection, schedule: Q01DX009 (oral), vehicle: saline): 113 % of control
T/C (endpoint: mean survival time, dose: 164.0 mg/kg/injection, schedule: Q01DX005 (sc), vehicle: clinical formulation): 159 % of control
T/C (endpoint: mean survival time, dose: 164.0 mg/kg/injection, schedule: Q01DX012 (sc), vehicle: clinical formulation): 121 % of control
T/C (endpoint: mean survival time, dose: 168.0 mg/kg/injection, schedule: Q01DX001 (ip), vehicle: other): 99 % of control and 107 % of control
T/C (endpoint: mean survival time, dose: 168.0 mg/kg/injection, schedule: Q01DX001 (sc), vehicle: other): 107 % of control and 116 % of control
T/C (endpoint: mean survival time, dose: 205.0 mg/kg/injection, schedule: Q01DX005 (sc), vehicle: clinical formulation): 97 % of control
T/C (endpoint: mean survival time, dose: 205.0 mg/kg/injection, schedule: Q01DX012 (sc), vehicle: clinical formulation): 106 % of control
T/C (endpoint: mean survival time, dose: 240.0 mg/kg/injection, schedule: Q01DX001 (ip), vehicle: other): 116 % of control and 121 % of control
T/C (endpoint: mean survival time, dose: 240.0 mg/kg/injection, schedule: Q01DX001 (sc), vehicle: other): 112 % of control and 117 % of control
T/C (endpoint: mean survival time, dose: 256.0 mg/kg/injection, schedule: Q01DX002 (sc), vehicle: clinical formulation): 111 % of control
T/C (endpoint: mean survival time, dose: 256.0 mg/kg/injection, schedule: Q01DX005 (sc), vehicle: clinical formulation): 102 % of control
T/C (endpoint: mean survival time, dose: 300.0 mg/kg/injection, schedule: Q01DX001 (ip), vehicle: Klucel (hydroxypropylcellulose) (HPC)): 98 % of control
T/C (endpoint: mean survival time, dose: 300.0 mg/kg/injection, schedule: Q01DX009 (ip), vehicle: Klucel (hydroxypropylcellulose) (HPC)): 114 % of control
T/C (endpoint: mean survival time, dose: 300.0 mg/kg/injection, schedule: Q01DX009 (ip), vehicle: saline): 102 % of control
T/C (endpoint: mean survival time, dose: 300.0 mg/kg/injection, schedule: Q04DX003 (ip), vehicle: Klucel (hydroxypropylcellulose) (HPC)): 152 % of control
T/C (endpoint: mean survival time, dose: 300.0 mg/kg/injection, schedule: Q04DX003 (ip), vehicle: other): 161 % of control
T/C (endpoint: mean survival time, dose: 320.0 mg/kg/injection, schedule: Q01DX009 (ip), vehicle: saline): 160 % of control
T/C (endpoint: mean survival time, dose: 320.0 mg/kg/injection, schedule: Q01DX009 (oral), vehicle: saline): 98 % of control
T/C (endpoint: mean survival time, dose: 363.0 mg/kg/injection, schedule: Q01DX001 (ip), vehicle: other): 121 % of control
T/C (endpoint: mean survival time, dose: 400.0 mg/kg/injection, schedule: Q01DX001 (sc), vehicle: clinical formulation): 121 % of control
T/C (endpoint: mean survival time, dose: 490.0 mg/kg/injection, schedule: Q01DX001 (ip), vehicle: other): 121 % of control
T/C (endpoint: mean survival time, dose: 500.0 mg/kg/injection, schedule: Q01DX001 (ip), vehicle: Klucel (hydroxypropylcellulose) (HPC)): 117 % of control
T/C (endpoint: mean survival time, dose: 500.0 mg/kg/injection, schedule: Q01DX001 (sc), vehicle: clinical formulation): 123 % of control
T/C (endpoint: mean survival time, dose: 500.0 mg/kg/injection, schedule: Q01DX002 (sc), vehicle: clinical formulation): 110 % of control
T/C (endpoint: mean survival time, dose: 600.0 mg/kg/injection, schedule: Q04DX003 (ip), vehicle: other): 116 % of control
T/C (endpoint: mean survival time, dose: 600.0 mg/kg/injection, schedule: Q04DX003 (ip), vehicle: saline with Tween-80): 124 % of control
T/C (endpoint: mean survival time, dose: 640.0 mg/kg/injection, schedule: Q01DX009 (ip), vehicle: saline): 104 % of control
T/C (endpoint: mean survival time, dose: 700.0 mg/kg/injection, schedule: Q01DX001 (ip), vehicle: other): 111 % of control
T/C (endpoint: mean survival time, dose: 700.0 mg/kg/injection, schedule: Q01DX001 (sc), vehicle: other): 111 % of control
T/C (endpoint: mean survival time, dose: 781.0 mg/kg/injection, schedule: Q04DX002 (sc), vehicle: clinical formulation): 100 % of control
T/C (endpoint: mean survival time, dose: 977.0 mg/kg/injection, schedule: Q01DX001 (sc), vehicle: clinical formulation): 107 % of control
T/C (endpoint: mean survival time, dose: 1000.0 mg/kg/injection, schedule: Q01DX001 (ip), vehicle: other): 96 % of control
T/C (endpoint: mean survival time, dose: 1200.0 mg/kg/injection, schedule: Q04DX003 (ip), vehicle: other): 93 % of control
T/C (endpoint: mean survival time, dose: 1300.0 mg/kg/injection, schedule: Q01DX001 (ip), vehicle: Klucel (hydroxypropylcellulose) (HPC)): 150 % of control
T/C (endpoint: mean survival time, dose: 1428.0 mg/kg/injection, schedule: Q01DX001 (ip), vehicle: other): 102 % of control
T/C (endpoint: mean survival time, dose: 1428.0 mg/kg/injection, schedule: Q01DX001 (sc), vehicle: other): 101 % of control
T/C (endpoint: mean survival time, dose: 2300.0 mg/kg/injection, schedule: Q01DX001 (ip), vehicle: Klucel (hydroxypropylcellulose) (HPC)): 115 % of control
T/C (endpoint: median survival time, dose: 5.0 mg/kg/injection, schedule: Q03HX008 (ip), vehicle: other): 95 % of control
T/C (endpoint: median survival time, dose: 5.0 mg/kg/injection, schedule: Q03HX024 (ip), vehicle: other): 95 % of control
T/C (endpoint: median survival time, dose: 9.0 mg/kg/injection, schedule: Q03HX008 (ip), vehicle: other): 96 % of control
T/C (endpoint: median survival time, dose: 9.0 mg/kg/injection, schedule: Q03HX024 (ip), vehicle: other): 102 % of control
T/C (endpoint: median survival time, dose: 14.0 mg/kg/injection, schedule: Q01DX009 (ip), vehicle: other): 100 % of control
T/C (endpoint: median survival time, dose: 14.0 mg/kg/injection, schedule: Q03HX008 (ip), vehicle: other): 94 % of control
T/C (endpoint: median survival time, dose: 14.0 mg/kg/injection, schedule: Q03HX024 (ip), vehicle: other): 96 % of control
T/C (endpoint: median survival time, dose: 23.0 mg/kg/injection, schedule: Q01DX009 (ip), vehicle: other): 103 % of control
T/C (endpoint: median survival time, dose: 23.0 mg/kg/injection, schedule: Q03HX008 (ip), vehicle: other): 93 % of control
T/C (endpoint: median survival time, dose: 23.0 mg/kg/injection, schedule: Q03HX024 (ip), vehicle: other): 103 % of control
T/C (endpoint: median survival time, dose: 39.0 mg/kg/injection, schedule: Q04DX003 (ip), vehicle: other): 111 % of control
T/C (endpoint: median survival time, dose: 39.0 mg/kg/injection, schedule: Q04DX003 (oral), vehicle: other): 100 % of control
T/C (endpoint: median survival time, dose: 39.0 mg/kg/injection, schedule: Q04DX003 (sc), vehicle: other): 106 % of control
T/C (endpoint: median survival time, dose: 65.0 mg/kg/injection, schedule: Q01DX001 (ip), vehicle: other): 100 % of control
T/C (endpoint: median survival time, dose: 65.0 mg/kg/injection, schedule: Q01DX009 (ip), vehicle: other): 104 % of control
T/C (endpoint: median survival time, dose: 65.0 mg/kg/injection, schedule: Q04DX003 (ip), vehicle: other): 95 % of control
T/C (endpoint: median survival time, dose: 65.0 mg/kg/injection, schedule: Q04DX003 (oral), vehicle: other): 103 % of control
T/C (endpoint: median survival time, dose: 65.0 mg/kg/injection, schedule: Q04DX003 (sc), vehicle: other): 101 % of control
T/C (endpoint: median survival time, dose: 75.0 mg/kg/injection, schedule: Q04DX003 (ip), vehicle: water): 95 % of control
T/C (endpoint: median survival time, dose: 108.0 mg/kg/injection, schedule: Q01DX001 (ip), vehicle: other): 122 % of control
T/C (endpoint: median survival time, dose: 108.0 mg/kg/injection, schedule: Q04DX003 (ip), vehicle: other): 100 % of control and 106 % of control
T/C (endpoint: median survival time, dose: 108.0 mg/kg/injection, schedule: Q04DX003 (oral), vehicle: other): 118 % of control
T/C (endpoint: median survival time, dose: 108.0 mg/kg/injection, schedule: Q04DX003 (sc), vehicle: other): 113 % of control
T/C (endpoint: median survival time, dose: 150.0 mg/kg/injection, schedule: Q04DX003 (ip), vehicle: water): 101 % of control
T/C (endpoint: median survival time, dose: 180.0 mg/kg/injection, schedule: Q01DX001 (ip), vehicle: other): 106 % of control
T/C (endpoint: median survival time, dose: 180.0 mg/kg/injection, schedule: Q04DX003 (ip), vehicle: other): 105 % of control and 112 % of control
T/C (endpoint: median survival time, dose: 180.0 mg/kg/injection, schedule: Q04DX003 (sc), vehicle: other): 108 % of control
T/C (endpoint: median survival time, dose: 300.0 mg/kg/injection, schedule: Q04DX003 (oral), vehicle: other): 118 % of control
T/C (endpoint: median survival time, dose: 500.0 mg/kg/injection, schedule: Q04DX003 (oral), vehicle: other): 164 % of control
T/C (endpoint: median survival time, dose: 833.0 mg/kg/injection, schedule: Q04DX003 (ip), vehicle: other): 118 % of control
T/C (endpoint: median survival time, dose: 833.0 mg/kg/injection, schedule: Q04DX003 (sc), vehicle: other): 160 % of control
T/C (endpoint: median survival time, dose: 1200.0 mg/kg/injection, schedule: Q04DX003 (ip), vehicle: water): 110 % of control
T/C (endpoint: median survival time, dose: 1300.0 mg/kg/injection, schedule: Q01DX001 (ip), vehicle: other): 104 % of control
